Measurements as given in US20200306283A1, “CANCER TREATMENT AND METASTASIS INHIBITION USING AN ANTI-CANCER STEM CELL AGENT IN COMBINATION WITH A NEU1 SIALIDASE INHIBITOR OR A CYTOKINE INHIBITOR AFTER PRIMARY CANCER TREATMENT” (priority 2016, published 2020).

What was measured:
HCT-15 cells = test: Cell subpopulations (CD44/CD24) in HCT-15 cell line after cytokine exposure, imaging flow cytometry; type: cell-based; parameters: unit not given here; details: HCT-15 cells after exposure to cytokines singly or in pairs
Description: Two authenticated colorectal carcinoma cell lines, HCT-15 and SW-620, were used to test the effect of different cytokine and cytokine cocktails, including IL-6, HGF, PGE-2, TGF-beta and MMP-9 alone or in a cocktail, on cell proliferation, EMT and cancer stem cell populations.
In order to evaluate stem cell populations, cells were synchronized by serum starvation for 72 hours before seeding in 24-well ultra low attachment plates at a density of 200,000 cells/well. Cells were then detached using trypsin EDTA and washed twice with PBS (without Calcium or Magnesium). A cell proliferation dye, eFluor 450 was used to label cells. Cells were grown with DMEM with high glucose and 2 mM Gluatmine without FBS in the presence of selected cytokines and or cytokine cocktails over a period of 72 hrs.
Cells that were grown in 5% serum were stained with the following antibody cocktails: CD24FITC, CD44PE and CD24FITC, CD133PE. Cells were also stained with a fixable live/dead efluor dye 506 to exclude dead cells. In parallel, cells were grown in the presence of 5% serum to evaluate CSC markers.
(§1) Cells were fixed in 1% Paraformaldehyde for 15 minutes at room temperature and run on Flowsight using 2 lasers (488 nm at 60 mW and 405 nm at 30 mW). For cell lines, 100,000 events were collected whilst for enriched CTCs all events were collected until the sample finished.
(§2) Flow cytometry data was analysed using IDEAS software. Double events, out of focus events, CD45PercPCy5.5 positive cells (in case of enriched CTCs), dead cells and non-nucleated events were eliminated from the fluorescence analysis of the cell population. FIG. 2 depicts scatterplots of flow cytometry experiments showing the enriched CTCs stained with an antibody containing CD44 after treatment with various cytokines and cytokine cocktails. Hoescht 33258 dye was used to stain nuclei in the case of the HCT-15 cell line and enriched CTCs. All experiments were stained with a fixable live/dead dye eFluor 506 to exclude dead cells.
To evaluate which cocktail combinations were most likely involved in cell proliferation of presumed quiescent stem cells or de-differentiated stem cell-like cells, four cytokines, IL-6, HGF, PGE-2 and TGF-beta were added singly or in pairs to HCT-15 cells. Results of combinations that influenced cell proliferation of HCT-15 cells in culture are presented. […] FIG. 4 depicts cell proliferation of subpopulations in the HCT-15 cell line after exposure to various cytokines and cytokine cocktails.

[1] = system: enriched circulating tumour cells from a patient with metastatic prostate cancer; test: Cell proliferation / cancer stem cell markers (EpCAM, CD44, CD133) in enriched CTCs cultured with cytokine cocktails; type: cell-based, human
Description: as §1
as §2, with “cocktails.” for “cocktails. Hoescht 33258 dye was used to stain nuclei in the case of the HCT-15 cell line and enriched CTCs. All experiments were stained with a fixable live/dead dye eFluor 506 to exclude dead cells.”
In order to determine if selected cytokines influence cell proliferation of circulating tumour cells (CTCs), whole blood was collected from a patient with metastatic prostate cancer. Circulating tumour cells were enriched from whole blood using RosetteSep CTC Enrichment cocktail. Briefly, samples of whole blood were incubated with RosetteSep (anti CD 56 for 20 minutes at room temperature). Phosphate buffered saline containing 2% Fetal Bovine Serum was added to the samples and layered on a Ficoll Paque gradient. After centrifugation, the supernatant which contained CTCs was washed twice with PBS containing 2% FBS. Equal volumes of the cell suspension were seeded into a 24-well ultra-low attachment polystyrene plate. […] FIG. 3 depicts scatterplots of flow cytometry experiments enriched CTCs stained with an antibody containing CD133 after treatment with various cytokines and cytokine cocktails.
FIG. 6 depicts cell proliferation of subpopulations in cultured CTCs after exposure to various cytokines and cytokine cocktails. Cells were stained using an antibody containing CD44 PE.
Cells were stained using an antibody containing CD133 PE.

[2] = system: enriched circulating tumour cells from a patient with colorectal cancer; test: Cultured enriched CTCs from a colorectal cancer patient treated with IL-6, IL-8 or PDGFBB (EpCAM, CD133, Lgr5 flow cytometry); type: cell-based, human
From the text: A blood sample was collected from a patient with colorectal cancer six days after surgery. Blood samples were enriched for CTCs using RosetteSep CD 56 kit according to standard protocol. Prior to cell culture, cells were stained with the following antibody cocktail: EpCAM A488, CD133PE, CD 45 PerCP Cy5.5, and Lgr5-PE-Vio770. Cells were either cultured in low attachment well plates without cytokines (control cells) or with three different cytokines (IL-6, IL-8 or PDGFBB).
Flow cytometry data was analysed using IDEAS software. Double events, out of focus events, CD45PercPCy5.5 positive cells, dead cells and non-nucleated events were eliminated from the fluorescence analysis of the cell population. Hoescht 33258 dye was used to stain nuclei of enriched CTCs. All experiments were stained with a fixable live/dead dye eFluor 506 to exclude dead cells.

SW-620 cells = SW-620 cells treated with cytokines with or without Irinotecan, flow cytometry for stem cell markers and apoptosis; type: cell-based, human; details: SW-620, cytokines 24 hours then 2 μM Irinotecan 36 hours; zero in non-treated control cells
Description: SW-620 cells, a human colorectal adenocarcinoma cell line, were treated with cytokines alone or in combination including IL-6, TGF-beta, HGF, PGE-2, IL-6+PGE-2 and TGF-beta+HGF for 24 hours and compared to untreated SW-620 cells as control. Some treated and untreated SW-620 cells were then exposed to 2 μM Irinotecan for 36 hours at which point cells were harvested for flow cytometry to assess for stem cell markers and markers of apoptosis. The percentage of CD44+CD133− cells following treatment with various cytokine and cytokine cocktails is depicted in FIG. 10. Compared to non-cytokine treated cells, combinations with IL-6+PGE-2, and TGF-beta+HGF increased the number and percentage of cells that were CD44+CD133− as shown in FIG. 10 (stem cells). FIG. 11 depicts the percentage of CD44+CD133− cells following treatment with various cytokines and Irinotecan. […]
Additionally, the percentage of CD44-CD133+ cells following treatment with various cytokines and cytokines cocktails was determined as depicted in FIG. 16. The percentage of CD44-CD133+ cells following treatment with various cytokines and Irinotecan was measured as depicted in FIG. 17. The percentage of CD44-CD133+ cells following treatment with various cytokine cocktails and Irinotecan was measured as depicted in FIG. 18. […]

[3] = system: xenograft tumors of PANC-1 cells; test: Fluorescence immunohistochemistry of E-cadherin and N-cadherin in PANC-1 xenograft tumors (FIG. 24); type: in vivo; details: immunocompromised mice
Description: Paraffin-embedded tumor sections (5 μm) on glass slides were processed from immunohistochemistry using conjugated E-cadherin and N-cadherin antibodies (see A of FIG. 24). Background control (CTL) sections were prepared without the antibodies. Images are representative of at least five fields of view from two tumor sections. (B). Each bar represents the mean (±standard error of the mean) corrected density of tumor staining. Abbrev.: C=cohort; M=mouse number. E- and N-cadherin expression in paraffin-embedded xenograft tumors of PANC-1 cells in immunocompromised mice using conjugated E- and N-cadherin antibodies was detected by fluorescence immunohistochemistry. […] Images are representative of at least five fields of view from two tumor sections, and each bar represents the mean±standard error of the mean corrected density of tumor staining.

[4] = cell culture period 8 days, CD44PE antibody cocktail
[5] = cultured CTCs from colorectal cancer patient

IL6: cytokine Interleukin 6 added to cancer cells in culture
CD24 + CD44− cell subpopulation (HCT-15 cells): 49.1
CD44 + CD24+ cell subpopulation (HCT-15 cells): 5.63
CD44 + CD24− cell subpopulation (HCT-15 cells): 1.35
CD44 − CD24− cell subpopulation (HCT-15 cells): 43.2
percentage of cells positive for both EpCAM and CD44 ([1]; 8 days culture, CD44PE antibody cocktail): highest
EpCAM-CD44+ cell sub-population ([1]; 8 days culture, no serum, CD44PE antibody cocktail): 6.14 % gated
EpCAM + CD133+ cell subpopulation ([1]; CD133 PE antibody cocktail): 23.5 percentages of gated subpopulations
EpCAM + CD133− cell subpopulation ([1]; CD133 PE antibody cocktail): 0 percentages of gated subpopulations
EpCAM − CD133+ cell subpopulation ([1]; CD133 PE antibody cocktail): 74.7 percentages of gated subpopulations
EpCAM − CD133− cell subpopulation ([1]; CD133 PE antibody cocktail): 1.46 percentages of gated subpopulations
EpCAM + CD44+ cell subpopulation [1, 4]: 35.6 percentage of gated cells
EpCAM + CD44− cell subpopulation [1, 4]: 2.66 percentage of gated cells
EpCAM − CD44+ cell subpopulation [1, 4]: 6.14 percentage of gated cells
EpCAM − CD44− cell subpopulation [1, 4]: 55 percentage of gated cells
EpCAM + CD133+ cell subpopulation [2, 5]: 0.1 percentages of gated subpopulations
EpCAM + CD133− cell subpopulation [2, 5]: 2.98 percentages of gated subpopulations
EpCAM − CD133+ cell subpopulation [2, 5]: 0.12 percentages of gated subpopulations
EpCAM − CD133− cell subpopulation [2, 5]: 90.5 percentages of gated subpopulations
EpCAM+CD133− subpopulation (cancer stem cell fraction) ([2]; cultured CTCs, colorectal cancer patient, 0.05% before culture, 2% control, listed as IL-6): significantly increased
percentage of CD44+CD133− stem cells (SW-620 cells): enriched

Nc1ccn([C@@H]2O[C@H](CO)[C@@H](O)C2(F)F)c(=O)n1 [Gem, gemcitabine]
N-cadherin expression in tumor tissue [3]: remained consistent
